According to US6495663B1, “Method and composition for enhancing transport across biological membranes” (The Board of Trustees of the Leland Stanford Junior …, priority 1997, dated 2002):
“Also recorded” adds a separate entry of the source. No end group written: not given here. *: point of attachment. FITC = O=C1OC2(c3ccc(O)cc3Oc3cc(O)ccc32)c2ccc(NC(=S)*)cc21; Ahx = NCCCCCC(=O)O

Legend:
[1] = cited from earlier work
Jurkat cells [2] = experiment: Confocal cell microscopy of conjugate uptake; format: cell-based, human; settings: 6.25 μM conjugate, 37° C., 10 minutes
Experimental: Cells incubated with fluorescent polyarginine peptides were prepared as described above for binding assays and analyzed at the Cell Sciences Imaging Facility (Stanford University, Stanford, Calif.) using a scanning, single beam laser confocal microscope, with an excitation wavelength of 488 nm (argon-ion laser) and an emission band-width of 510-550 using a band-pass filter. Conjugates (6.25 μM) containing tat(49-57), R7, or r7 coupled to fluorescein were incubated with Jurkat cells for 37° C. for 10 minutes. FIGS. 2A-2F show results for emitted fluorescence (FIGS. 2A-2C) and transmitted light (2D—2F) for tat(49-57) (FIGS. 2A and […]), R7 (FIGS. 2B and 2E), and r7 (FIGS. 2C and 2F).

Jurkat cells [3] = experiment: Kinetics of uptake (Michaelis-Menten, Lineweaver-Burk); format: cell-based, human; settings: for Km / VMAX: fluorescent conjugates, Jurkat cells, 0.5, 1, 2 and 4 minutes at 4° C., Lineweaver-Burk
cells = experiment: Length range studies: uptake of longer polyarginine conjugates (FACS, mean fluorescence of live cells); format: cell-based
Experimental: To examine the effect of substantially longer polymers, a mixture of L-arginine polymers with an average molecular weight of 12,000 daltons (≈100 amino acids) was also tested (Example 5). However, to avoid precipitation problems, the level of serum in the assay had to be reduced for testing conjugates with the ≈12,000 MW polymer material. Cell uptake was analyzed by FACS as above, and the mean fluorescence of live cells was measured. Cytotoxicity of each conjugate was also measured.
Suspension cells ([…]) were incubated for varying times, at 37° C., 23° C., or 4° C., with a range of concentrations of peptides or conjugates in PBS pH 7.2 containing 2% fetal calf serum (PBS/FCS) in 96 well plates. […] The pelleted cells were resuspended in PBS containing 2% FCS and 0.1% propidium iodide and analyzed on a FACScan (Becton Dickenson, Mountain View, Calif.). […]
The following homopolymers of polyarginine were tested by the fluorescence assay in Example 2, with incubation at 37° C. for 15 minutes prior to cell pelleting: r9, R9, R15, R20, R25, and R30. […] The cells were analyzed by FACS, and the mean fluorescence of the live cells was measured. Cytotoxicity of each conjugate was also measured by calculating the percentage of cells that stained with propidium iodide, which is characteristic of cell death. […]

E. coli strain HB101 = experiment: Transport into bacterial cells (gram-negative); format: cell-based; settings: 30 minutes at 37° C., 3 to 50 μM conjugate
Experimental: Gram-negative bacteria (E. coli strain HB101) and gram-positive bacteria (Strep. bovis) were grown in appropriate media in logarithmic phase. Cell cultures (4×10^8 per mL) were incubated for 30 minutes at 37° C. with varying concentrations of fluorescent conjugates containing linear polymers of L-arginine (R4 through R9), D-arginine (r4 through r9), or L-lysine (K9) at conjugate concentrations of 3 to 50 μM. The cells were washed and taken up in PBS-containing propidium iodide (to distinguish dead cells) and analyzed by FACS and fluorescent microscopy. Results are shown in FIGS. 5A-5C as discussed above.

[4] = Biological half-life / proteolysis by serum enzymes in uptake assay; format: in vitro ADME; settings: serum-containing assay
Jurkat cells [5] = experiment: Fluorescence assay of cellular uptake of peptide-fluorescein conjugates (FACS); format: cell-based, human; settings: FIGS. 1A-1C
[6] = tested on: gamma-IFN secretion by murine T cell line (clone 11.3); experiment: Inhibition of gamma-IFN production by conjugates; format: cell-based
Experimental: 3. Gamma-IFN Assay. The amount of gamma interferon secreted by a murine T cell line (clone 11.3) was measured by incubating 10^5 T cells with varying amounts of antigen (peptide consisting of residues 110-121 of sperm whale myoglobin) and histocompatible spleen cells from DBA/2 mice (H-2d, 5×10^5), which act as antigen-presenting cells (APCs), in 96 well plates. After incubation for 24 hours at 37° C., 100 μL of the supernatants were transferred to microtiter plates coated with commercially available anti-gamma-IFN monoclonal antibodies (Mab) (Pharmingen, San Diego, Calif.). After incubation for an hour at room temperature, the plates were washed with PBS containing 1% fetal calf serum and 0.1% Tween®20, after which a second, biotinylated gamma-IFN Mab was added. After a second hour of incubation, the plates were washed as before, and europium (Eu)-streptavidin (Delphia-Pharmacia) was added. Again, after an hour of incubation, an acidic buffer was added to release Eu, which was measured by time-resolved fluorometry on a Delphia plate reader.
The ability of PNA-polyarginine conjugates to inhibit secretion of gamma-IFN was assayed by adding various concentrations of the above gamma-IFN conjugates with suboptimal doses of peptide antigen (0.5 μM), to a mixture of clone 11.3 T cells and histocompatible spleen cells.
After 24 hours, aliquots of the cultured supernatants were taken, and the amount of gamma-IFN was measured using the fluorescent binding assay described in section 3 above.

[7] = target: T1, RAF-1 in V7 immunocomplex (Homo sapiens, UniProt P04049); experiment: Anti-V7 immunoprecipitation from peptide-treated T-cells; format: cell-based
T1 construct: T-cells which had been isolated by standard methods; endogenous in cells; host or cells: T-cells isolated by standard methods
Experimental: The conjugate was added (final concentration ≈10 μM) to T-cells which had been isolated by standard methods, and was incubated at 37° C. for several hours to overnight. Cells were lysed using detergent (1% Triton X-100). DNA was removed, and the soluble (protein-containing) fraction was subjected to immunoprecipitation with an anti-V7 murine monoclonal antibody in combination with goat anti-mouse IgG. RAF-1 is a kinase that associates with, and is inactivated by association with, V7.

[8] = target: T2, complex consisting of RAF-1 and p21 Ras (Homo sapiens, UniProt P04049); experiment: Disruption of RAF-1/p21 Ras complex in peptide-treated T-cells; format: cell-based; settings: same peptide treatment
T2 construct: T-cells which had been isolated by standard methods; endogenous in cells; host or cells: T-cells isolated by standard methods

RAF-1 kinase = target: T3, RAF-1 kinase (Homo sapiens, UniProt P04049); experiment: RAF-kinase activity in anti-RAF-1 precipitates of T cells; format: cell-based; settings: anti-RAF-1 precipitates of exposed T cells
T3 construct: Anti-RAF-1 precipitates of T cells; endogenous in cells; host or cells: T cells
From the text: In a second study, the V7 peptide portion of the V7-poly-arginine conjugate was phosphorylated in vitro using protein kinase C.

cytotoxic T-lymphocytes = experiment: Transport of large protein antigen into APCs: stimulation of CTLs; format: cell-based; settings: 10 μM on B-cells (APCs)
Experimental: The molar ratio of peptide conjugated to ovalbumin was quantified by amino acid analysis. The conjugate product was designated OV-R7. The conjugate was added (final concentration 10 μM) to B-cells, also referred to as antigen-presenting cells (APCs), which were isolated according to standard methods. The APCs were incubated with OV-R7, and then were added to a preparation of cytotoxic T-lymphocytes isolated by standard methods.

albumin-specific CTLs = experiment: Dendritic cells exposed to conjugate and injected into mice: CTL response in blood; format: in vivo; settings: dendritic cells exposed to antigen, then injected into mice
Experimental: In another experiment, histocompatible dendritic cells (a specific type of APC) were exposed to albumin-R7 conjugates and were then injected into mice. […] Control mice were given dendritic cells that had been exposed to unmodified albumin.

Molecule: CC(=O)O[C@@]12CO[C@@H]1C[C@H](O)[C@@]1(C)C(=O)[C@H](O)C3=C(C)[C@@H](OC(=O)[C@H](O)[C@@H](NC(=O)OC(C)(C)C)c4ccccc4)C[C@@](O)([C@@H](OC(=O)c4ccccc4)[C@H]21)C3(C)C [taxotere]
- water solubility [1]: 6 to 7 µg/mL

Molecule: Arg-Lys-Lys-Arg-Arg-Gln-Arg-Arg-Arg (RKKRRQRRR; also: fluorescein conjugate, place not given here) [tat 49-57, polypeptide comprising HIV tat residues 49-57, fluorescein conjugate, reference compound]
- fluorescence of cytosol (confocal micrographs) (Jurkat cells [2]): only weak staining
- Km (Jurkat cells [3]): 722 µM
- VMAX (Jurkat cells [3]): 0.38 µM/s

Molecule: H3N-rrrrrrrrr-COO^-
- fluorescence of cytosol (confocal micrographs) (Jurkat cells [2]): brightly fluorescent
- rate of entering cells (cells; FIG. 3 data): higher rates than polymers containing 15 or more contiguous arginines
- uptake versus longer polymers (cells; higher concentrations (>3 μM), 37° C., 15 minutes): significantly better than for the longer polymers
- Km (Jurkat cells [3]): 7.21 µM
- VMAX (Jurkat cells [3]): 0.39 µM/s
- Km (Jurkat cells [3]; listed as nonamer of D-arginine): 7 µM
- apparent affinity (Km) relative to tat peptide (Jurkat cells [3]; greater apparent affinity than tat(49-57)): approximately 100 fold
- uptake levels by E. coli HB 101 cells (E. coli strain HB101): much higher uptake levels
- proteolytic degradation [4]: did not show evidence of proteolytic degradation

Molecule: K9: nonamer of L-Lys residues, fluorescein conjugate ({FITC-Ahx}-KKKKKKKKK; also: fluorescein conjugate, place not given here)
- cellular uptake (transport of fluorescein into cells) (Jurkat cells [5]): very little uptake
- cellular uptake (transport of fluorescein into cells) (Jurkat cells [5]; listed as poly-Lys nonamer): ineffective as a transporter

Molecule: NH2-rrrrrrr-AACGCTACAC-COOH (PNA, D-arginine heptamer conjugate, chemistry not fully specified) [sense PNA-r7]
- inhibition of gamma-IFN secretion ([6]; 24 hours, peptide antigen 0.5 μM, equivalent molar amounts): no inhibition

Molecule: NH2-rrrrrrr-GTGTAGCGTT-COOH (all peptide nucleic acid (PNA); D-arginine heptamer attached at the N-terminus, further chemistry not fully specified) [antisense PNA-r7 conjugate]
- reduction in IFN secretion ([6]; 24 hours, peptide antigen 0.5 μM): over 70%
- conjugate level effective to block γ-IFN secretion ([6]; FIG. 7): above 10 μM

Molecule: V7 peptide: V7 cytoplasmic tail sequence KLSTLRSNT with 7 arginine residues attached to its C-terminus (KLSTLRSNTRRRRRRR)
- binding to RAF-1 [7]: can bind to RAF-1
- RAF-1 co-precipitation with V7 ([7]; ≈10 μM on T-cells, 37° C., several hours to overnight): RAF-1 protein was eliminated from the V7 immuno-complex; also recorded: RAF-1 protein was eliminated from the V7 immunocomplex
- disruption of complex of RAF-1 and p21 Ras [8]: did not disrupt; also recorded: unable to disrupt
- inhibition of RAF-kinase activity (RAF-1 kinase): not

B1: unmodified ovalbumin: ovalbumin (45 kDa) protein antigen, not conjugated (protein, UniProt P01012 2-386, looked up)
Ovalbumin: GSIGAASMEFCFDVFKELKVHHANENIFYCPIAIMSALAMVYLGAKDSTRTQINKVVRFDKLPGFGDSIEAQCGTSVNVHSSLRDILNQITKPNDVYSFSLASRLYAEERYPILPEYLQCVKELYRGGLEPINFQTAADQARELINSWVESQTNGIIRNVLQPSSVDSQTAMVLVNAIVFKGLWEKAFKDEDTQAMPFRVTEQESKPVQMMYQIGLFRVASMASEKMKILELPFASGTMSMLVLLPDEVSGLEQLESIINFEKLTEWTSSNVMEERKIKVYLPRMKMEEKYNLTSVLMAMGITDVFSSSANLSGISSAESLKISQAVHAAHAEINEAGREVVGSAEAGVDAASVSEEFRADHPFLFCIKHIATNAVLFFGRCVSP
- stimulation of CTLs by APCs incubated with antigen (cytotoxic T-lymphocytes): failed to stimulate the CTLs
- albumin-specific CTL response in blood of mice (albumin-specific CTLs): did not exhibit the albumin-specific CTL response
